The assay concerns the target T1, Piezo1 (Mus musculus, UniProt E2JF22).
T1 construct: native full-length channel in primary cultured cholangiocytes (DIV5) from intrahepatic bile duct units; monomer ~290 kD band reported for GFP-tagged protein
Nature of the assay: Fura-2 ratiometric Ca2+ imaging. It counts as cell-based. The note with it: agonist; native DIV5 mouse cholangiocytes, 2.5 mM external Ca2+; Yoda1 without effect in Piezo1-knockout HEK293T cells; read-out: apparent EC50. The text has this: Fura-2 ratiometric Ca2+ imaging on Piezo1 | Concentration-response profile for Yoda1 in mouse DIV5 cholangiocytes, yielding apparent EC50

T1 sequence (E2JF22 whole entry): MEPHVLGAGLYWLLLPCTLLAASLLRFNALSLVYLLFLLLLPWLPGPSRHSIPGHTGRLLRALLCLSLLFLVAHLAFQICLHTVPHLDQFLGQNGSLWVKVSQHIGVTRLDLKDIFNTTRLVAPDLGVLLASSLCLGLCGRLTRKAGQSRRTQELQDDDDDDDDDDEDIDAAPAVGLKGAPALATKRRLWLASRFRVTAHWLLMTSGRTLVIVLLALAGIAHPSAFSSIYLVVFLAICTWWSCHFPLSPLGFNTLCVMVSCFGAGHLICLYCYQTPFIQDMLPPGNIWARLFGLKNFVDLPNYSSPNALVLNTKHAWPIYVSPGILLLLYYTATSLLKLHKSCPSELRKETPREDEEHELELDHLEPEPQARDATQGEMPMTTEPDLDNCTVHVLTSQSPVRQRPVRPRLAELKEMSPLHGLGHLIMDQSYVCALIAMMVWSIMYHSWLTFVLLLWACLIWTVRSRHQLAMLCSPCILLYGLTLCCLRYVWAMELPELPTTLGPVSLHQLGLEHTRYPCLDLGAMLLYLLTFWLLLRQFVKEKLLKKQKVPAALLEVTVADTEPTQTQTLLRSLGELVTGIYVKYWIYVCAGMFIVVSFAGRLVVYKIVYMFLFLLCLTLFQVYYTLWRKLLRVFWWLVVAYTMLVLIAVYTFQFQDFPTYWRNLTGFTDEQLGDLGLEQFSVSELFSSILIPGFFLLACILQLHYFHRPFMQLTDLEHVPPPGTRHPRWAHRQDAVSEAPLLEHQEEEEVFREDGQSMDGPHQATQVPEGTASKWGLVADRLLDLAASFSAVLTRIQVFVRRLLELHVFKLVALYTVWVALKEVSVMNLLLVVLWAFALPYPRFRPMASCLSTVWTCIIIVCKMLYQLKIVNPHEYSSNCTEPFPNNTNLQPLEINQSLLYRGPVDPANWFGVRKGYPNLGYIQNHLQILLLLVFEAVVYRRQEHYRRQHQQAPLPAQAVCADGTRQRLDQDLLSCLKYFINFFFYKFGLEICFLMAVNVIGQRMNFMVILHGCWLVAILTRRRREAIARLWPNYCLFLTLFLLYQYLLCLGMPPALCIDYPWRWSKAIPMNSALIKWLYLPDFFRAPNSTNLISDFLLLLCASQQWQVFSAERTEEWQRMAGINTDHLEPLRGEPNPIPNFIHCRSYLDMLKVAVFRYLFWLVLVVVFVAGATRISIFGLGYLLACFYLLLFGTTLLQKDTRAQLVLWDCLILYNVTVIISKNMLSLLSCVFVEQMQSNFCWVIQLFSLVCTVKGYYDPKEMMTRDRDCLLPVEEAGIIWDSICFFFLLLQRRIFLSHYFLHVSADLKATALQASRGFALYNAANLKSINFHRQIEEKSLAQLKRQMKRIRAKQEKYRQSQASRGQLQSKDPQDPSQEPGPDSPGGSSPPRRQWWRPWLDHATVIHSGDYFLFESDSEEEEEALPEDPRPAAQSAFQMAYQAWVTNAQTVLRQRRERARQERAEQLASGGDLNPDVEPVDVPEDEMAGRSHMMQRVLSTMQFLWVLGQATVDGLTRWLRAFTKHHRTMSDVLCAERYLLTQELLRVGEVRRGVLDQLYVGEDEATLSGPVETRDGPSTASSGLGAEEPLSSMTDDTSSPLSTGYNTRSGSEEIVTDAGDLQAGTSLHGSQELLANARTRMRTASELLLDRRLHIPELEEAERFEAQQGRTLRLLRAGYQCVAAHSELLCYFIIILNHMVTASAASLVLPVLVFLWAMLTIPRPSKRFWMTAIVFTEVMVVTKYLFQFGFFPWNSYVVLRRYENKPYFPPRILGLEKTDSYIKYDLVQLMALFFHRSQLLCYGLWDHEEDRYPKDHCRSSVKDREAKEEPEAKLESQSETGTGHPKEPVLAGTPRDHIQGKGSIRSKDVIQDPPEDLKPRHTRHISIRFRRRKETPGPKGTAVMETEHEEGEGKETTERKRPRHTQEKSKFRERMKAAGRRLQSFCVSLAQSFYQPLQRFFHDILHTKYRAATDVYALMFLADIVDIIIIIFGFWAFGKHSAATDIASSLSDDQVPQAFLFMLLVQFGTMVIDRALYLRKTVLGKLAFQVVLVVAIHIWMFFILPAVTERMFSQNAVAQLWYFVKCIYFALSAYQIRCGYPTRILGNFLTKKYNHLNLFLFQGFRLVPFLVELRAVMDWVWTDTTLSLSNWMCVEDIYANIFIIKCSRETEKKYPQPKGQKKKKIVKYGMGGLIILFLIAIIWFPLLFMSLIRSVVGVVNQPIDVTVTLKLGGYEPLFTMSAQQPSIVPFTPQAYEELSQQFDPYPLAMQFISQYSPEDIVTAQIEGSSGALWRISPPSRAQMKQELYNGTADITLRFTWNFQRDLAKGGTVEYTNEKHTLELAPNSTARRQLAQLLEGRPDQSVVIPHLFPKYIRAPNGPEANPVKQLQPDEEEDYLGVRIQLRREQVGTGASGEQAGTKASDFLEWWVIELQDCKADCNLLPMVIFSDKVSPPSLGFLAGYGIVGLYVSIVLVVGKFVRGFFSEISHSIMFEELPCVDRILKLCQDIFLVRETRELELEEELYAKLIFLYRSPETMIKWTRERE

As to `Clc1cccc(Cl)c1CSc1nnc(-c2cnccn2)s1` [Yoda1], the EC50 is 29.4 ± 1.25 µM.

The term EC50 denotes the concentration at which the effect is half-maximal.
